Data published in ChEMBL document CHEMBL4024706 (Eur J Med Chem, 2017).
pEC50, pIC50, pKi: −log10 of the molar value.

Key:
[1] = target: ALK tyrosine kinase receptor (Homo sapiens) (UniProt Q9UM73); experiment: Inhibition of wild-type human partial length ALK (I1088 to E1409 residues) expressed in mammalian expression system assessed as residual activity at 1 uM by Kinomescan method relative to control
[2] = target: Calcium/calmodulin-dependent protein kinase type IV (Homo sapiens) (UniProt Q16566); experiment: Inhibition of wild-type human partial length CAMK4 (A22 to A322 residues) expressed in bacterial expression system assessed as residual activity at 1 uM by Kinomescan method relative to control
[3] = test system: Tyrosine-protein kinase ABL1 (Homo sapiens), P00519 [T315I]; experiment: Inhibition of human phosphorylated ABL1 T315I mutant (S229 to K512 residues) expressed in mammalian expression system assessed as residual activity at 1 uM by Kinomescan method relative to control
[4] = target: Serine/threonine-protein kinase B-raf (Homo sapiens) (UniProt P15056); experiment: Inhibition of wild-type human partial length BRAF (S429 to E741 residues) expressed in mammalian expression system assessed as residual activity at 1 uM by Kinomescan method relative to control
Serine/threonine-protein kinase B-raf (Homo sapiens), sequence (P15056 whole entry, the tested form may be a part): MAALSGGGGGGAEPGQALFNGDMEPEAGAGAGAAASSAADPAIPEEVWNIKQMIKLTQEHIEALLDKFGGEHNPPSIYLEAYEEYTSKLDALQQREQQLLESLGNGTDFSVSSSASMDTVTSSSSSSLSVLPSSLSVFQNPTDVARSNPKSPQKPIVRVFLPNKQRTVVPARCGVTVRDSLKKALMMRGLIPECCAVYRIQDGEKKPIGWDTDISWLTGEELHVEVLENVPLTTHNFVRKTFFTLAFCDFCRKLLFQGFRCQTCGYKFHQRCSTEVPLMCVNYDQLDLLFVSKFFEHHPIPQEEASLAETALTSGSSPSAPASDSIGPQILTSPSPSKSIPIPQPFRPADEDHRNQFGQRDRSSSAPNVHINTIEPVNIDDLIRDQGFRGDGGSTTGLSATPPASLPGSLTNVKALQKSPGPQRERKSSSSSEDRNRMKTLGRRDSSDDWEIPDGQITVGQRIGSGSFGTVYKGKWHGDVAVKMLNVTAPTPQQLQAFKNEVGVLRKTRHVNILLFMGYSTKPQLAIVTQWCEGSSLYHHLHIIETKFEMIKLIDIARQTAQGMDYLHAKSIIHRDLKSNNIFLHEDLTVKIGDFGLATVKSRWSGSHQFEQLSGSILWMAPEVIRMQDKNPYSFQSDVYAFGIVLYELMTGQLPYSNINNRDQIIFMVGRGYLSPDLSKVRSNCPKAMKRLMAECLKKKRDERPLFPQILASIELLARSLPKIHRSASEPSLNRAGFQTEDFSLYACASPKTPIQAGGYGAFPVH

[5] = target: Mitogen-activated protein kinase 13 (Homo sapiens) (UniProt O15264); experiment: Inhibition of wild-type human full length p38-delta (M1 to L365 residues) expressed in bacterial expression system assessed as residual activity at 1 uM by Kinomescan method relative to control
[6] = target: Serine/threonine-protein kinase PLK2 (Homo sapiens) (UniProt Q9NYY3); experiment: Inhibition of wild-type human partial length PLK2 (H58 to F354 residues) expressed in mammalian expression system assessed as residual activity at 1 uM by Kinomescan method relative to control
Serine/threonine-protein kinase PLK2 (Homo sapiens), sequence (Q9NYY3 whole entry, looked up, the tested form may be a part): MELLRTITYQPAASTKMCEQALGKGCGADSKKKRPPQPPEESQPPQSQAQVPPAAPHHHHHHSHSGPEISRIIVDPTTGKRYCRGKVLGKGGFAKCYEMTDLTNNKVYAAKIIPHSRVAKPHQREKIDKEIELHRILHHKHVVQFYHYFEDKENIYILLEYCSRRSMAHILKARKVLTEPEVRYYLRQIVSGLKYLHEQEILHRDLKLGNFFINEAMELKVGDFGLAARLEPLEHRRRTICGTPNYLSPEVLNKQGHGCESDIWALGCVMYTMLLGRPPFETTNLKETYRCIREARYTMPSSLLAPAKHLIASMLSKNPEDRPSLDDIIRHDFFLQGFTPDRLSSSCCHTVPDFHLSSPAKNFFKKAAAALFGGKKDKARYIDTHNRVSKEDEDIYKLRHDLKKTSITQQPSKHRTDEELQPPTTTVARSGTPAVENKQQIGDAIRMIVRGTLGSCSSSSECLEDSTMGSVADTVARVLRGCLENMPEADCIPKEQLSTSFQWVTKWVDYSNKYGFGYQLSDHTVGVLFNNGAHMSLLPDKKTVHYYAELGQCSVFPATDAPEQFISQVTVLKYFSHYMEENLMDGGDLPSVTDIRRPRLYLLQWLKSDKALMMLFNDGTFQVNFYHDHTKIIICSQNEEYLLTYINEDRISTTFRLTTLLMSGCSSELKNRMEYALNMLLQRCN

[7] = target: TRAF2 and NCK-interacting protein kinase (Homo sapiens) (UniProt Q9UKE5); experiment: Inhibition of wild-type human partial length TNIK (D4 to K311 residues) expressed in bacterial expression system assessed as residual activity at 1 uM by Kinomescan method relative to control
TRAF2 and NCK-interacting protein kinase (Homo sapiens), sequence (Q9UKE5 whole entry, looked up, the tested form may be a part): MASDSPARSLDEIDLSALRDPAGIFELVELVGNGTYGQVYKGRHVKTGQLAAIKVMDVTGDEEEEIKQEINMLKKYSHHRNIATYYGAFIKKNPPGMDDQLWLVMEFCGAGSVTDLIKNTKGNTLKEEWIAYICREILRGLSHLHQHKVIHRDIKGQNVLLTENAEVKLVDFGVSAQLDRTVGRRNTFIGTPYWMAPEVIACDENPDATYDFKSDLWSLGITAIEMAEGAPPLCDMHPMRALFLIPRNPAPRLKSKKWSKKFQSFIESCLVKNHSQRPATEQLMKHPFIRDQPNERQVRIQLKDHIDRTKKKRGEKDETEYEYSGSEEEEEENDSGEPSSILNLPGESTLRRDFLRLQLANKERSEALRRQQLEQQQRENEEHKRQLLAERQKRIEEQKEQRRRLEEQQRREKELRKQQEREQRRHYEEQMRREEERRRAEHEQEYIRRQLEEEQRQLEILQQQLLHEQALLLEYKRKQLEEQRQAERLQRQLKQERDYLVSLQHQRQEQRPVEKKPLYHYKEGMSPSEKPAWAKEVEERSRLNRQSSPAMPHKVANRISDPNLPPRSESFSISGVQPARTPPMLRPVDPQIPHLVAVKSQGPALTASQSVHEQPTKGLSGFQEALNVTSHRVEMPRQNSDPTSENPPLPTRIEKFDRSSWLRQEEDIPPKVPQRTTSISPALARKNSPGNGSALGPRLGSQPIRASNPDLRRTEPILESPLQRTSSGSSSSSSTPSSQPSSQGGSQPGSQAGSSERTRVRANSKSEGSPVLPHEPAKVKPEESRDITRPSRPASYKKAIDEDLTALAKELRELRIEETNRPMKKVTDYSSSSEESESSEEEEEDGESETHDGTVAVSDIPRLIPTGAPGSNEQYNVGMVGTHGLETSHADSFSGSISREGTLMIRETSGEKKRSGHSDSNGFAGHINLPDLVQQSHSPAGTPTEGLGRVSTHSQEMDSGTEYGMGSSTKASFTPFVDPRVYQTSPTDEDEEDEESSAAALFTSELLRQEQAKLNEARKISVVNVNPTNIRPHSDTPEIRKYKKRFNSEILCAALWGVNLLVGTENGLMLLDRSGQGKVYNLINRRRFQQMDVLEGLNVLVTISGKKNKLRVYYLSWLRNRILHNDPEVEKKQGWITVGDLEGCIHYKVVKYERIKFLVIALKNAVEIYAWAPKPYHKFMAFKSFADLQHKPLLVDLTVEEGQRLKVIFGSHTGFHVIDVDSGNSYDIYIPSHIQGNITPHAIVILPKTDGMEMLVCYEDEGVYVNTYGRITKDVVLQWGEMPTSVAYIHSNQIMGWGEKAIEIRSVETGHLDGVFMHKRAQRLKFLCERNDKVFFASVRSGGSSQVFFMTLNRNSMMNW

[8] = Elimination half-life in Sprague-Dawley rat at 10 mg/kg, po by LC-MS/MS method; format: ADME, organism-based; conditions: in vivo, read-out: beta t1/2 (converted)
[9] = target: NUAK family SNF1-like kinase 2 (Homo sapiens) (UniProt Q9H093); experiment: Inhibition of wild-type human partial length SNARK (P22 to A333 residues) expressed in mammalian expression system assessed as residual activity at 1 uM by Kinomescan method relative to control
NUAK family SNF1-like kinase 2 (Homo sapiens), sequence (Q9H093 whole entry, the tested form may be a part): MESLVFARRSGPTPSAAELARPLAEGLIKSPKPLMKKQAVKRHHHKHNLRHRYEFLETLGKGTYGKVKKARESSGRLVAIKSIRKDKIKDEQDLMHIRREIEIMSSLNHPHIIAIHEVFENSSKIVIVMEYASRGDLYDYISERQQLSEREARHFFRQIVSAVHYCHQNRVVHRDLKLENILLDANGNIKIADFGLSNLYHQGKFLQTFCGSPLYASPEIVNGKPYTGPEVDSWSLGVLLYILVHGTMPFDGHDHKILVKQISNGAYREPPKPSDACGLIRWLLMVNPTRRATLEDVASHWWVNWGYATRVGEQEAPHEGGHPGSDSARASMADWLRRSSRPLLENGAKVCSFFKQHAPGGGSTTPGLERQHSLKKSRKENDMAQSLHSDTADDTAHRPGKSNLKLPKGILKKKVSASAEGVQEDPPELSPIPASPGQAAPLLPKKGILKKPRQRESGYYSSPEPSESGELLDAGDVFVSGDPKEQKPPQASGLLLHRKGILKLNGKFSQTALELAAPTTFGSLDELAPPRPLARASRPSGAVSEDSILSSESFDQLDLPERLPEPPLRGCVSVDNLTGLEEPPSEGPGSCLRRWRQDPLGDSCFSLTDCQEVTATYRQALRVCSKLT

[10] = target: TGF-beta receptor type-1 (Homo sapiens) (UniProt P36897); experiment: Inhibition of wild-type human partial length TGFBR1 (D179 to M503 residues) expressed in bacterial expression system assessed as residual activity at 1 uM by Kinomescan method relative to control
TGF-beta receptor type-1 (Homo sapiens), sequence (P36897 whole entry, the tested form may be a part): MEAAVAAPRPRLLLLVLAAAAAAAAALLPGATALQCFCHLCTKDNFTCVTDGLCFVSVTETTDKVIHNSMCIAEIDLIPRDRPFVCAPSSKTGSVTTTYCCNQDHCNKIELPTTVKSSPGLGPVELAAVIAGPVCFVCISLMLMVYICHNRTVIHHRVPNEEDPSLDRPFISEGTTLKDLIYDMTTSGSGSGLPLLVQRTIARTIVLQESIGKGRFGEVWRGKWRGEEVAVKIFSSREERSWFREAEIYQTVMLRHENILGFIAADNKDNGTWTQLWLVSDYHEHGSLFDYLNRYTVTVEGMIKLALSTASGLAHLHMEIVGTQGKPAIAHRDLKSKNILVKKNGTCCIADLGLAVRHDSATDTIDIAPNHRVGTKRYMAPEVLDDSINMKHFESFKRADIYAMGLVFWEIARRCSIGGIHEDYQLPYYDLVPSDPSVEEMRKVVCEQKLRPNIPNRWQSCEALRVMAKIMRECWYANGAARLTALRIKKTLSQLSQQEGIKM

[11] = target: Myosin light chain kinase (Homo sapiens) (UniProt Q32MK0); experiment: Inhibition of wild-type human partial length MLCK (D488 to K800 residues) expressed in bacterial expression system assessed as residual activity at 1 uM by Kinomescan method relative to control
[12] = target: Serine/threonine-protein kinase 33 (Homo sapiens) (UniProt Q9BYT3); experiment: Inhibition of wild-type human full length STK33 (M1 to L514 residues) expressed in bacterial expression system assessed as residual activity at 1 uM by Kinomescan method relative to control
[13] = test system: Phosphatidylinositol 4,5-bisphosphate 3-kinase catalytic subunit alpha isoform (Homo sapiens), P42336 [M1043I]; experiment: Inhibition of human partial length PIK3CA M1043I mutant (R108 to N1068 residues) expressed in mammalian expression system assessed as residual activity at 1 uM by Kinomescan method relative to control
[14] = target: T1, Tyrosine-protein kinase BTK (Homo sapiens, UniProt Q06187); experiment: Reversible inhibition of full length recombinant human N-terminal His tagged […] expressed in baculovirus infected Sf9 insect cells using poly (Glu,Tyr)4:1 as substrate pretreated for 2 to 60 mins followed by substrate addition after 1 hr by ADP-Glo luminescence assay
T1 sequence (Q06187 whole entry, the tested form may be a part): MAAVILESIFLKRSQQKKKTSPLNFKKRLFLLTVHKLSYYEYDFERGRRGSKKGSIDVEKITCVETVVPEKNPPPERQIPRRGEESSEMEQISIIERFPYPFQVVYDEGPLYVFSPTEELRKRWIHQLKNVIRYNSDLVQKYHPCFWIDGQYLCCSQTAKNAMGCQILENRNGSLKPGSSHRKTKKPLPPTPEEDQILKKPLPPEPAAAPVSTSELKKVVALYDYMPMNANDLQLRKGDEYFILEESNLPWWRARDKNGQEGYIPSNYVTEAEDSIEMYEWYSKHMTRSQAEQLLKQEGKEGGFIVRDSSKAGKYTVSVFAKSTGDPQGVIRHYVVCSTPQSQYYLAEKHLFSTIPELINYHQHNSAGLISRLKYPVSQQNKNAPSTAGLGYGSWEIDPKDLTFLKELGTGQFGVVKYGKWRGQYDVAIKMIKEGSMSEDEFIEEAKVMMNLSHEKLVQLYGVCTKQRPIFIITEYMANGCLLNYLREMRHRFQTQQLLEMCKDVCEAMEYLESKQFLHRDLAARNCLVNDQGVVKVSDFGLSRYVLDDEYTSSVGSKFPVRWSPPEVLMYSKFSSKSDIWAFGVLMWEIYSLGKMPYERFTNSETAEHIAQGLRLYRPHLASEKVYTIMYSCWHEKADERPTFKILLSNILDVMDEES

[15] = target: Phosphatidylinositol 3-kinase catalytic subunit type 3 (Homo sapiens) (UniProt Q8NEB9); experiment: Inhibition of wild-type human partial length VPS34 (S282 to H879 residues) expressed in mammalian expression system assessed as residual activity at 1 uM by Kinomescan method relative to control
[16] = target: Serine/threonine-protein kinase 26 (Homo sapiens) (UniProt Q9P289); experiment: Inhibition of wild-type human full length MST4 (M1 to P416 residues) expressed in mammalian expression system assessed as residual activity at 1 uM by Kinomescan method relative to control
Serine/threonine-protein kinase 26 (Homo sapiens), sequence (Q9P289 2-416 limits assumed): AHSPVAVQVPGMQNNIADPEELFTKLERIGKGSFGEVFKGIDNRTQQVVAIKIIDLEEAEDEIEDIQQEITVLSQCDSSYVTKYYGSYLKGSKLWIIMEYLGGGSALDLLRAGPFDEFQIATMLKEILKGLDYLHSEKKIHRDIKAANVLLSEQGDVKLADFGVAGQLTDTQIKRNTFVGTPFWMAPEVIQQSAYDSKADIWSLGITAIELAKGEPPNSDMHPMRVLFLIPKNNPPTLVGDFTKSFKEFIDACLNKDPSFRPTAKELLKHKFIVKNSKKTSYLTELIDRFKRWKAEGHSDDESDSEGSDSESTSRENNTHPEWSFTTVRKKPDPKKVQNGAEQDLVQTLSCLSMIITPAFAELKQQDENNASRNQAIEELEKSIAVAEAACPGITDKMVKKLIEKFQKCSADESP

[17] = target: T1, Tyrosine-protein kinase BTK; experiment: Inhibition of BTK auto-phosphorylation at Y223 in human U2932 cells measured after 4 hrs by chemiluminescent assay
[18] = test system: Receptor-type tyrosine-protein kinase FLT3 (Homo sapiens), P36888 [K663Q]; experiment: Inhibition of human partial length FLT3 K663Q mutant (V592 to Y969 residues) expressed in bacterial expression system assessed as residual activity at 1 uM by Kinomescan method relative to control
[19] = target: Glycogen synthase kinase-3 alpha (Homo sapiens) (UniProt P49840); experiment: Inhibition of wild-type human full length GSK3A (M1 to S483 residues) expressed in bacterial expression system assessed as residual activity at 1 uM by Kinomescan method relative to control
[20] = test system: Proto-oncogene tyrosine-protein kinase receptor Ret (Homo sapiens), P07949 [M918T]; experiment: Inhibition of human partial length RET M918T mutant (E713 to D1014 residues) expressed in bacterial expression system assessed as residual activity at 1 uM by Kinomescan method relative to control
[21] = target: Dual specificity mitogen-activated protein kinase kinase 4 (Homo sapiens) (UniProt P45985); experiment: Inhibition of wild-type human partial length MEK4 (S84 to D399 residues) expressed in mammalian expression system assessed as residual activity at 1 uM by Kinomescan method relative to control
[22] = target: Serine/threonine-protein kinase ULK1 (Homo sapiens) (UniProt O75385); experiment: Inhibition of wild-type human partial length ULK1 (M1 to T309 residues) expressed in mammalian expression system assessed as residual activity at 1 uM by Kinomescan method relative to control
[23] = target: Epidermal growth factor receptor (Homo sapiens, UniProt P00533); experiment: Inhibition of recombinant human N-terminal GST-tagged wild-type EGFR (695 to end residues) expressed in baculovirus infected Sf9 insect cells using poly (Glu,Tyr)4:1 as substrate pretreated for 60 mins followed by substrate addition after 1 hr by ADP-Glo luminescence assay
[24] = target: Serine/threonine-protein kinase MRCK gamma (Homo sapiens) (UniProt Q6DT37); experiment: Inhibition of wild-type human partial length DMPK2 (S46 to S408 residues) expressed in bacterial expression system assessed as residual activity at 1 uM by Kinomescan method relative to control
[25] = target: MAP/microtubule affinity-regulating kinase 4 (Homo sapiens) (UniProt Q96L34); experiment: Inhibition of wild-type human partial length MARK4 (K29 to G340 residues) expressed in bacterial expression system assessed as residual activity at 1 uM by Kinomescan method relative to control

Work on C=CC(=O)Nc1cc(Nc2cc(-c3cccc(NC(=O)c4ccc(C(C)(C)C)cc4)c3C)cn(C)c2=O)ccc1C(=O)N1CCOCC1 yielded an Activity [1] of 94%, an Activity [2] of 77% and an Activity [3] of 93%. It also gave an Activity [4] of 100%, an Activity [5] of 84% and an Activity [6] of 100%. The Activity [7] was 97%, the half-life [8] was 1.33 h and the Activity [9] was 87%. It also gave an Activity [10] of 93%, an Activity [11] of 83% and an Activity [12] of 100%. It also gave an Activity [13] of 100%, a pKi [14] of 8.05 and an Activity [15] of 90%. The Activity [16] was 88%, the pEC50 [17] was > 7.52 and the Activity [18] was 94%. It also gave an Activity [19] of 100%, an Activity [20] of 100% and an Activity [21] of 86%. The Activity [22] was 100%, the pIC50 [23] was < 5.00 and the Activity [24] was 100%. It also gave an Activity [25] of 91%.
